Test: xn = mol fraction of the nth substance listed
Settings: 298 K, Liquid

ClCCCCCl [1,4-dichlorobutane] + CN(C)C=O
mass density [kg/m3]
Settings	x2 = 0.1003	x2 = 0.1923	x2 = 0.2994	x2 = 0.4006	x2 = 0.5022	x2 = 0.6004	x2 = 0.7029	x2 = 0.7943	x2 = 0.9006
100 kPa	1119	1105.1	1087.9	1071.2	1052.4	1034	1013.1	993.4	968.9
500 kPa	1119.3	1105.4	1088.2	1071.5	1052.7	1034.2	1013.4	993.7	969.2
1000 kPa	1119.7	1105.8	1088.6	1071.8	1053.1	1034.6	1013.8	994	969.6
1500 kPa	1120.1	1106.1	1089	1072.2	1053.5	1035	1014.1	994.3	969.8
2000 kPa	1120.4	1106.5	1089.3	1072.6	1053.8	1035.3	1014.4	994.7	970.2
2500 kPa	1120.8	1106.9	1089.7	1072.9	1054.2	1035.7	1014.7	995	970.5
3000 kPa	1121.2	1107.3	1090.1	1073.3	1054.5	1036	1015.1	995.4	970.7
3500 kPa	1121.6	1107.7	1090.4	1073.6	1054.8	1036.3	1015.4	995.7	971.1
4000 kPa	1122	1108.1	1090.8	1074	1055.2	1036.7	1015.8	996	971.4
4500 kPa	1122.3	1108.4	1091.2	1074.4	1055.5	1037	1016.1	996.4	971.8
5000 kPa	1122.7	1108.8	1091.6	1074.8	1055.9	1037.4	1016.4	996.7	972.1
5500 kPa	1123.1	1109.2	1091.9	1075.1	1056.2	1037.7	1016.8	996.9	972.3
6000 kPa	1123.4	1109.5	1092.3	1075.4	1056.6	1038.1	1017	997.3	972.6
6500 kPa	1123.8	1109.9	1092.6	1075.9	1057	1038.4	1017.5	997.6	972.9
7000 kPa	1124.2	1110.3	1093	1076.2	1057.2	1038.8	1017.8	997.9	973.3
7500 kPa	1124.6	1110.7	1093.4	1076.6	1057.6	1039.1	1018	998.3	973.6
8000 kPa	1124.9	1111	1093.7	1076.9	1057.9	1039.4	1018.4	998.5	973.9
8500 kPa	1125.2	1111.4	1094	1077.2	1058.3	1039.7	1018.7	998.9	974.2
9000 kPa	1125.6	1111.8	1094.4	1077.6	1058.7	1040.1	1019.1	999.2	974.5
9500 kPa	1126	1112.2	1094.8	1078	1059	1040.4	1019.4	999.5	974.8
10000 kPa	1126.4	1112.6	1095.2	1078.4	1059.3	1040.8	1019.7	999.9	975.2
10500 kPa	1126.8	1112.9	1095.5	1078.7	1059.7	1041.1	1020.1	1000.2	975.5
10900 kPa	1127.1	–	–	–	–	–	–	–	–
11000 kPa	–	1113.3	1095.9	1079.1	1060	1041.5	1020.4	–	975.8
11500 kPa	1127.4	1113.6	1096.2	1079.4	1060.3	1041.8	1020.7	1000.8	976.1
11900 kPa	–	1113.9	–	–	1060.6	–	–	–	–
12000 kPa	1127.8	–	1096.6	1079.8	–	1042.1	1021.1	1001.2	976.4
12500 kPa	1128.2	1114.3	1096.9	1080.1	1061	1042.4	1021.4	1001.5	976.7
12900 kPa	–	–	–	–	–	–	1021.7	–	–
13000 kPa	1128.5	1114.7	1097.3	1080.4	1061.3	1042.7	–	1001.7	976.9
13500 kPa	1128.9	1115	1097.7	1080.8	1061.6	1043.1	1022	1002.1	977.2
13900 kPa	–	1115.3	–	–	1062	–	–	–	–
14000 kPa	1129.2	–	1097.9	1081.1	–	1043.4	1022.4	1002.3	977.5
14400 kPa	–	–	–	1081.4	–	–	1022.6	–	–
14500 kPa	1129.5	1115.7	1098.2	–	1062.3	1043.7	–	1002.7	977.8
15000 kPa	1129.9	1116	1098.6	1081.8	1062.6	1044	1023	1003	978.1
15500 kPa	1130.3	1116.4	1099	1082.1	1063	1044.4	1023.2	1003.3	978.4
16000 kPa	1130.6	1116.8	1099.2	1082.5	1063.3	1044.6	1023.5	1003.5	978.7
16500 kPa	1130.9	1117.1	1099.6	1082.8	1063.6	1045	1023.8	1003.8	978.9
16900 kPa	–	1117.4	–	–	–	–	1024.1	1004.1	–
17000 kPa	1131.3	–	1100	1083.1	1063.9	1045.3	–	–	979.3
17500 kPa	1131.6	1117.8	1100.3	1083.5	1064.2	1045.6	1024.4	1004.5	979.5
17900 kPa	–	–	–	–	1064.5	–	–	–	–
18000 kPa	1132	1118.1	1100.6	1083.8	–	1045.9	1024.7	1004.9	979.8
18500 kPa	1132.3	1118.4	1100.9	1084.2	1065	1046.3	1025.1	1005.1	980
19000 kPa	1132.8	1118.8	1101.4	1084.5	1065.3	1046.6	1025.4	1005.5	980.4
19400 kPa	–	–	1101.7	–	–	–	–	1005.7	–
19500 kPa	1133.1	1119.1	–	1084.9	1065.5	1046.9	1025.7	–	980.7
20000 kPa	1133.4	1119.5	–	1085.3	1065.9	1047.2	1026.1	1006.1	981
20100 kPa	–	–	1102.2	–	–	–	–	–	–
